Molecules are shown by their SMILES.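 A five-concentration, 48-hour dose response in 96-well plates underlies each endpoint, interpolated linearly between surrounding concentrations. GI50 marks 50% less growth. TGI denotes the concentration required for complete inhibition of growth.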 Bounds are passed on as bounds.

Consider 9 compounds from PubChem BioAssay (NCI).

Among the test systems are HT29 colon; NCI-H23 lung; COLO 205 colon; 786-0 renal; SW-620 colon; UACC-62 melanoma; PC-3 prostate; HCT-15 colon; ACHN renal; SF-295 CNS.
Assay in all cases: inhibition of tumour cell growth, NCI panel, 48 h

Turning to `CCN(CC)c1c(-c2ccccc2)n[nH]c1C(=O)OC`, the GI50 is 19.4 µM in the assay with HT29 colon; 42.4 µM with NCI-H23 lung; 17.7 µM in the assay on COLO 205 colon; 32.7 µM with 786-0 renal; 26.6 µM in the assay on SW-620 colon; 15.5 µM in the assay on UACC-62 melanoma. Also, the results for the GI50 with PC-3 prostate, with HCT-15 colon and with ACHN renal were 31.2 µM, 19 µM and 28.8 µM, respectively. Also, the TGI with HT29 colon is 33.5 µM; in the assay with NCI-H23 lung, over 100 µM; in the assay on COLO 205 colon, 64 µM; in the assay with 786-0 renal, 96.2 µM; in the assay with SW-620 colon it was over 100 µM; in the assay with UACC-62 melanoma, 37.7 µM. Moreover, the TGI with PC-3 prostate was over 100 µM; with HCT-15 colon, 40.9 µM; in the assay with ACHN renal, 74.3 µM.
As for `Cc1ccc(C(=O)NCCCOc2ccc(N3C(N)=NC(N)=NC3(C)C)cc2Cl)cc1S(=O)(=O)F`, the GI50 in the assay with HT29 colon was 6.61 µM; in the assay with SF-295 CNS, over 100 µM; in the assay on NCI-H23 lung, 12.8 µM; in the assay on COLO 205 colon, 38.1 µM; in the assay on 786-0 renal, 80 µM; in the assay with SW-620 colon, 10.2 µM. Further, the GI50 in the assay with UACC-62 melanoma was 9.39 µM; in the assay on PC-3 prostate it was 5.9 µM; in the assay on HCT-15 colon it was over 100 µM; with ACHN renal it was over 100 µM. The TGI in the assay on HT29 colon, in the assay on SF-295 CNS, in the assay with NCI-H23 lung, in the assay with COLO 205 colon, with 786-0 renal and in the assay with SW-620 colon was over 100 µM each time. For the same compound, the TGI in the assay with UACC-62 melanoma, in the assay with PC-3 prostate, with HCT-15 colon and with ACHN renal was over 100 µM each time.
For the compound `C[C@]12CC[C@@H]3c4ccc(O)cc4CC[C@H]3[C@@H]1CC[C@@H]2NS(=O)(=O)c1ccc(Br)cc1`, the GI50 with HT29 colon was 2.31 µM; in the assay on SF-295 CNS, 1.75 µM; in the assay with NCI-H23 lung it was 3.44 µM; in the assay on COLO 205 colon it was 2.12 µM; in the assay with 786-0 renal, 3.07 µM; in the assay on SW-620 colon, 3.35 µM. Also, the GI50 in the assay with UACC-62 melanoma was 1.76 µM; with PC-3 prostate, 2.6 µM; with ACHN renal it was 3.17 µM. Besides, the TGI in the assay with HT29 colon amounted to 4.63 µM; with SF-295 CNS, 3.29 µM; with NCI-H23 lung, 15.5 µM; in the assay with COLO 205 colon, 4.04 µM; with 786-0 renal it was 8.86 µM; with SW-620 colon, 13.1 µM. In addition, the TGI in the assay with UACC-62 melanoma was determined as 3.68 µM; with PC-3 prostate, 13.8 µM; in the assay on ACHN renal, 11.1 µM.
For `CO[C@@H]1CCN(c2nccc(Nc3cc4c(C(C)C)ccc(N5CC(CS(C)(=O)=O)[C@H]5C)c4cn3)n2)C[C@@H]1F` (some centres not stated), the GI50 with HT29 colon is 3.1 µM; with SF-295 CNS, 3.15 µM; in the assay on NCI-H23 lung, 3.7 µM; with COLO 205 colon, 4.71 µM; in the assay with 786-0 renal it was 7.18 µM; in the assay on SW-620 colon, 5.13 µM. In addition, the GI50 is 3.52 µM in the assay with PC-3 prostate, 2.84 µM in the assay with HCT-15 colon and 1.33 µM in the assay on ACHN renal. Besides, the TGI with HT29 colon is 12.1 µM; with SF-295 CNS it was 10.1 µM; in the assay on NCI-H23 lung, 20.4 µM; with COLO 205 colon it was over 100 µM; in the assay with 786-0 renal, over 100 µM; in the assay on SW-620 colon, over 100 µM. Moreover, the figures for the TGI in the assay on PC-3 prostate, with HCT-15 colon and in the assay with ACHN renal were over 100 µM, 14.4 µM and 44.6 µM, respectively.
With `C=C1c2ccccc2C(=O)c2c1c1c(C(=O)OC)c(OC(=O)OCc3ccc([N+](=O)[O-])cc3)ccc1n2Cc1ccccc1`, the GI50 was 33.7 µM in the assay with SF-295 CNS; 4.22 µM with NCI-H23 lung; 32.4 µM in the assay on COLO 205 colon; 7.17 µM with 786-0 renal; 5.63 µM in the assay on SW-620 colon; 10.5 µM with UACC-62 melanoma. In addition, the GI50 was 0.329 µM in the assay with PC-3 prostate, 34.3 µM in the assay on HCT-15 colon and 55.9 µM with ACHN renal. Further, the TGI was over 100 µM with SF-295 CNS; 17.9 µM in the assay with NCI-H23 lung; over 100 µM with COLO 205 colon; 26 µM in the assay with 786-0 renal; over 100 µM in the assay on SW-620 colon; 22.6 µM in the assay with UACC-62 melanoma. Further, the TGI in the assay with PC-3 prostate is 4.4 µM; with HCT-15 colon it was over 100 µM; with ACHN renal it was over 100 µM.
For `C1OC1CN1CCN(CC2CO2)CC1` (configuration not stated), the TGI in the assay with HT29 colon was over 100 µM; in the assay with SF-295 CNS, over 100 µM; in the assay on NCI-H23 lung it was over 81.2 µM; in the assay on COLO 205 colon it was over 100 µM; with 786-0 renal it was over 100 µM; with SW-620 colon it was over 100 µM. Besides, the TGI in the assay on UACC-62 melanoma is over 68.5 µM; in the assay on HCT-15 colon, over 100 µM; in the assay on ACHN renal, over 100 µM.
For the compound `O=C(O)[C@@H]1OCCOCCO[C@@H](C(=O)O)[C@H](C(=O)O)OCCOCCO[C@H]1C(=O)O`, the TGI in the assay on HT29 colon is over 100 µM; in the assay on SF-295 CNS, over 100 µM; in the assay on NCI-H23 lung it was over 100 µM; in the assay with COLO 205 colon, over 100 µM; in the assay with 786-0 renal it was over 100 µM; in the assay with SW-620 colon, over 90.1 µM. Also, the TGI in the assay on UACC-62 melanoma, in the assay with HCT-15 colon and in the assay with ACHN renal was over 100 µM in each case.
Turning to `N#CC1=C(N)NC(=S)NC1c1ccc(-c2ccc(-c3nc4ccccc4o3)cc2)s1` (configuration not stated), the GI50 in the assay on SF-295 CNS was 13.3 µM; in the assay with NCI-H23 lung it was 12 µM; with COLO 205 colon, 11.3 µM; in the assay on 786-0 renal, 11.1 µM; in the assay with SW-620 colon, 21.3 µM; in the assay with UACC-62 melanoma, 9.2 µM. In addition, the figures for the GI50 in the assay on PC-3 prostate, in the assay with HCT-15 colon and in the assay on ACHN renal were 9.78 µM, 12.3 µM and 6.54 µM, respectively. Further, the TGI in the assay with SF-295 CNS is 38.8 µM; with NCI-H23 lung, 27.4 µM; in the assay with COLO 205 colon, 33.4 µM; in the assay with 786-0 renal, 22.4 µM; in the assay on SW-620 colon it was over 50 µM; in the assay with UACC-62 melanoma, 21.3 µM. The TGI was over 50 µM with PC-3 prostate, over 50 µM with HCT-15 colon and 12.9 µM with ACHN renal.
Consider `N#Cc1ccc(/C=C(/C(=O)c2ccccc2)c2ccccc2)cc1`, for which the TGI with HT29 colon came to 22.1 µM; in the assay on SF-295 CNS, 35.2 µM; in the assay on NCI-H23 lung it was 35.2 µM; in the assay on COLO 205 colon, 37.3 µM; in the assay with 786-0 renal it was 15.5 µM; in the assay with SW-620 colon, 7.31 µM. Further, the figures for the TGI in the assay on UACC-62 melanoma, with HCT-15 colon and in the assay on ACHN renal were 31.2 µM, 30.4 µM and 33.1 µM, respectively.
